# “And” between values parts separate entries of the source, which are not always exact repeats. Equal entries are not always repeated.
# Key:
# [1] = test system: E-cadherin expression in HT-29 cells; assay: Western blot of E-cadherin expression, HT-29 cells; format: cell-based
# Experimental: (§1) HCT-8, HT-29, and HT-116 cells were grown in DMEM medium supplied with 10% fetal bovine serum (FBS) and 1% penicillin-streptomycin. Caco-2 cells were grown in DMEM medium supplied with 10% FBS, 1% non-essential amino acid NEAA), and 1% penicillin-streptomycin. Cells were cultured at 37 °C and 5% CO2. As cells reached confluency, they were detached using 0.25% Trypsin-EDTA.
# For Western blot analyses, HCT-8 (n = 15), HCT-116 (n = 12), Caco-2 (n = 6), and HT-29 (n = 12) cells were seeded in 6-well plates at a density of 1 × 10^6 cells/well. Twenty-four hours after seeding, all cell lines were treated with 1 μM EntF* or a placebo solution. HCT-8 cells were also tested for responsiveness to 1 μM EntF* synthetic alanine-derived analogs. For antagonist activity analysis, HCT-8 cells were treated with 1 μM Nef-M1 or 1 μM EntF*A1 alone or in combination with 500 nM EntF*. After 24 h, cells were detached from the surface and lysed in RIPA buffer (Thermo Scientific). Protein concentration was determined using the modified Lowry protein assay kit (Thermo Scientific), according to the manufacturer’s instructions. Protein samples were diluted to the same concentration (4 μg/μL) with water and diluted again 1:1 using 2x Laemmli buffer. After that, samples were boiled for 5 min at 95 °C to denature proteins and centrifuged for 5 min at 16,000g; supernatants were used for Western blot analyses. Equal amounts of total protein (20 μg/lane) were separated by SDS-PAGE on an Any kD^TM gel (Bio-Rad ) and then transferred to a PVDF membrane. Before incubation with antibodies, non-specific binding sites on the membranes were blocked using 5% skimmed milk solution (1 h). TBS buffer with 0.05% Tween 20 was used for all washing steps. Membranes were incubated overnight at 4 °C with an anti-E-cadherin primary antibody (1/1000 dilution). An HRP-conjugated anti-rabbit antibody (1/2000 dilution, 1 h incubation) was used for chemiluminescent detection. Membranes were incubated with the detection substrate for 5 min and signal detection was performed using the ChemiDoc EZ imager and Image Lab software (Bio-Rad). […]
# Caco-2 monolayer = Caco-2 monolayer permeability assay; format: in vitro ADME; conditions: for Kapp / Cumulative conc / Cumulative amount / Mean cumulative amount / Mean cumulative concentration / % Dose applied / Conc in receiver compartment: Caco-2 Transwell A -> B; for Kapp / Cumulative conc / Cumulative amount / Mean cumulative amount / Mean cumulative concentration: 1 µM EntF* apical; for Kapp / Conc in receiver compartment: LC1-MS1; for Cumulative conc / Cumulative amount / % Dose applied / Conc in receiver compartment: individual replicates A -> B (1)-(6); for Mean cumulative amount / Mean cumulative concentration: mean of n = 6; for % Dose applied: amount applied 0.4 nmol; for Conc in receiver compartment: dose solution 1 µM EntF* (0.4 nmol applied), cell vol 1.200 ml
# Experimental: To avoid the absorption of EntF* onto plasticware and glassware, all tubes and containers were coated with a BSA-based anti-adsorption solution before use.
# as §1
# Caco-2 cells were seeded on Transwell polycarbonate membrane filters (0.4 μm pore size, Corning, Germany) at a density of 2.6 × 10^5 cells/cm^2 and permeability tests performed as described by Hubatsch et al.. Cells were submerged with Hank’s balanced salt solution (HBSS), and transepithelial electrical resistance (TEER) was measured before and after the experiment. Peptide solution (1 μM) was added to the apical chamber, and 300 μL aliquots were taken after 30, 60, 90, and 120 min of incubation. Samples were analyzed using LC1-MS1. Linear curve fitting was used to calculate the apparent permeability coefficient (Papp).
# EntF* was detected and quantified on a Waters Acquity® UPLC H-class system, connected to a Waters Xevo™ TQ-S triple quadrupole mass spectrometer with electrospray ionization (operated in positive ionization mode). Autosampler tray and column oven were kept at 10 ± 5 °C and 60 ± 5 °C, respectively. Chromatographic separation was achieved on a Waters Acquity® UPLC BEH Peptide C18 column (300 Å, 1.7 μm, 2.1 mm × 100 mm). The mobile phases consisted of 93/2/5 water/acetonitrile/DMSO (V/V/V) containing 0.1% formic acid (mobile phase A) and 2/93/5 water/acetonitrile/DMSO (V/V/V) containing 0.1% formic acid (mobile phase B), and the flow rate was set to 0.5 mL/min. A 10-μL aliquot from each sample was injected. The gradient program started with 80% of mobile phase A for 1 min, followed by a linear gradient to 40% of mobile phase A for 3.5 min. Gradient was then changed to 14.2% mobile phase A at 5 min, followed by a 1 min equilibration, before starting conditions were applied. EntF* retention time was between 4.25 and 4.45 min.
smiles,measurement,setting,value
"CC(C)C[C@@H]1NC(=O)[C@H](CO)NC(=O)[C@H](Cc2ccccc2)NC(=O)[C@H](C(C)C)NC(=O)[C@@H](NC(=O)[C@H](CCC(=O)O)NC(=O)[C@@H](NC(=O)[C@H](CC(C)C)NC(=O)[C@H](CC(N)=O)NC(=O)[C@@H](N)CO)C(C)C)CSSC[C@@H](C(=O)N[C@@H](CC(N)=O)C(=O)O)NC(=O)[C@H](CCCCN)NC(=O)[C@H](CCCCN)NC(=O)[C@H](Cc2ccccc2)NC1=O (single isomer, unassigned) [EntF*]",effect on E-cadherin expression in HT-29 cells,"[1]; 1 μM EntF* or CXCL12, 24 h, n = 12",statistically significant reduction
same,"Relative E-cadherin expression, average","[1]; HT-29 cells, average of n = 12",73.7
same,Kapp,"Caco-2 monolayer; HBSS, replicate AB1",2.13e-07 cm/min
same,Kapp,"Caco-2 monolayer; HBSS, replicate AB2",1.88e-07 cm/min
same,Kapp,"Caco-2 monolayer; HBSS, replicate AB3",2.21e-07 cm/min
same,Kapp,"Caco-2 monolayer; HBSS, replicate AB4",2.07e-07 cm/min
same,Kapp,"Caco-2 monolayer; HBSS, replicate AB5",2.81e-07 cm/min
same,Kapp,"Caco-2 monolayer; HBSS, replicate AB6",2.12e-07 cm/min
same,Cumulative conc,"Caco-2 monolayer; HBSS, time 30 min",43.732 pM and 39.850 pM and 48.195 pM and 54.684 pM and 29.485 pM and 29.005 pM
same,Cumulative amount,"Caco-2 monolayer; HBSS, time 60 min",30.299 amol and 45.664 amol and 39.602 amol and 52.014 amol and 67.922 amol and 37.955 amol
same,Cumulative conc,"Caco-2 monolayer; HBSS, time 60 min",25.249 pM and 38.053 pM and 33.002 pM and 43.345 pM and 56.602 pM and 31.630 pM
same,Cumulative amount,"Caco-2 monolayer; HBSS, time 90 min",46.426 amol and 46.765 amol and 42.758 amol and 52.183 amol and 67.818 amol and 43.254 amol
same,Cumulative conc,"Caco-2 monolayer; HBSS, time 90 min",38.688 pM and 38.971 pM and 35.631 pM and 43.485 pM and 56.515 pM and 36.045 pM
same,Cumulative amount,"Caco-2 monolayer; HBSS, time 120 min",37.088 amol and 40.742 amol and 47.116 amol and 44.500 amol and 55.592 amol and 38.733 amol
same,Cumulative conc,"Caco-2 monolayer; HBSS, time 120 min",30.906 pM and 33.952 pM and 39.263 pM and 37.084 pM and 46.326 pM and 32.277 pM
same,Mean cumulative amount,Caco-2 monolayer; time 30 min,48.990 amol
same,Mean cumulative concentration,Caco-2 monolayer; time 30 min,40.825 pM
same,Mean cumulative amount,Caco-2 monolayer; time 60 min,45.576 amol
same,Mean cumulative concentration,Caco-2 monolayer; time 60 min,37.980 pM
same,Mean cumulative amount,Caco-2 monolayer; time 90 min,49.867 amol
same,Mean cumulative concentration,Caco-2 monolayer; time 90 min,41.556 pM
same,Mean cumulative amount,Caco-2 monolayer; time 120 min,43.962 amol
same,Mean cumulative concentration,Caco-2 monolayer; time 120 min,36.635 pM
same,% Dose applied,Caco-2 monolayer; time 30 min,13.120% and 11.955% and 14.459% and 16.405% and 8.846%
same,% Dose applied,Caco-2 monolayer; time 60 min,7.575% and 11.416% and 9.901% and 13.004% and 16.980% and 9.489%
same,% Dose applied,Caco-2 monolayer; time 90 min,11.606% and 11.691% and 10.689% and 13.046% and 16.954% and 10.813%
same,% Dose applied,Caco-2 monolayer; time 120 min,9.272% and 10.185% and 11.779% and 11.125% and 13.898% and 9.683%
same,Conc in receiver compartment,"Caco-2 monolayer; HBSS, time 0 min",0.0217667 nM and 0.0386367 nM and 0.0252731 nM and 0.06096 nM and 0.0351635 nM and 0.0240173 nM
same,Conc in receiver compartment,"Caco-2 monolayer; HBSS, time 30 min",0.0382904 nM and 0.0301911 nM and 0.0418772 nM and 0.0394437 nM and 0.0206944 nM and 0.0230007 nM
same,Conc in receiver compartment,"Caco-2 monolayer; HBSS, time 60 min",0.0134944 nM and 0.0230389 nM and 0.015795 nM and 0.0265575 nM and 0.0315007 nM and 0.0176651 nM
same,Conc in receiver compartment,"Caco-2 monolayer; HBSS, time 90 min",0.02356 nM and 0.0181966 nM and 0.0144756 nM and 0.0200585 nM and 0.0235388 nM and 0.017664 nM
same,Conc in receiver compartment,"Caco-2 monolayer; HBSS, time 120 min",0.009888 nM and 0.0086284 nM and 0.0144888 nM and 0.008642 nM and 0.007466 nM and 0.009481 nM
same,apparent permeability coefficient (Papp),"Caco-2 monolayer; Caco-2 monolayer on Transwell polycarbonate filters (0.4 μm), apical to basolateral, HBSS, 1 μM peptide in apical chamber, aliquots 30, 60, 90, 120 min, LC1-MS1, linear curve fitting, mean ± SEM, n = 6",3.67 ± 0.22 × 10^−9 cm s^−1

# Source: PMC9238271, “The quorum sensing peptide EntF* promotes colorectal cancer metastasis in mice: a new factor in the host-microbiome interaction” (BMC Biology, 2022)
